Measured values: patent publication US6552080B1, “Fungicidal compounds having a fluorovinyl-or fluoropropenyl-oxyphenyloxime moiety and process for the preparation thereof” (Korea Research Institute of Chemical Technology, priority 1999, dated 2003)
Read-outs that look alike come from different tables or passages of the source.

How the values were obtained:
[1] = test system: Pyricularia oryzae Carvara KA301; format: in vivo; settings: for RCV (Fungicidal Activities, C.V.): Rice Blast
[2] = test system: Botrytis cinerae; test: Fungicidal activity against Cucumber Gray Mold Rot (CGM) disease; format: in vivo; settings: for CGM (Fungicidal Activities, C.V.): Cucumber Gray Mold Rot; for Fungicidal Activities CGM (C.V.): 50 ppm
Protocol: Botrytis cinerae, which was isolated from cucumber infected thereby, was inoculated on a PDA agar medium and cultured under a 12L/12D cycle at 25° C. for 15 days to form spore. The spores were scraped, filtered through a gauze and then suspended in potato dextrose liquid medium at a concentration of 1×10^6 spore/ml. The spore suspension was sprayed on a cucumber plant having one leaf. The cucumber plant was held in a humidified room at 20° C. for 3 days. L.A. on a leaf was measured to calculate an C.V.

[3] = test system: Phytophthora infestans; format: in vivo; settings: for TLB (Fungicidal Activities, C.V.): Tomato Late Blight
[4] = test system: Puccinia recondita; test: Fungicidal activity against Wheat Leaf Rust (WLR) disease; format: in vivo; settings: for WLR (Fungicidal Activities, C.V.): Wheat Leaf Rust
[5] = test system: Erysiphae graminis; test: Fungicidal activity against Barley Powdery Mildew (BPM) disease; format: in vivo; settings: for BPM (Fungicidal Activities, C.V.): Barley Powdery Mildew
[6] = test system: Rhizoctonia solani AG-1; test: Fungicidal activity against Rice Sheath Blight (RSB) disease; settings: for RSB (Fungicidal Activities, C.V.): Rice Sheath Blight

| SMILES | RCV (Fungicidal Activities, C.V.) ([1]; concentration 2 ppm) | RCV (Fungicidal Activities, C.V.) ([1]; concentration 10 ppm) | RCV (Fungicidal Activities, C.V.) ([1]; concentration 50 ppm) | CGM (Fungicidal Activities, C.V.) ([2]; concentration 50 ppm) | TLB (Fungicidal Activities, C.V.) ([3]; concentration 50 ppm) | WLR (Fungicidal Activities, C.V.) ([4]; concentration 2 ppm) | WLR (Fungicidal Activities, C.V.) ([4]; concentration 10 ppm) | WLR (Fungicidal Activities, C.V.) ([4]; concentration 50 ppm) | BPM (Fungicidal Activities, C.V.) ([5]; concentration 2 ppm) | BPM (Fungicidal Activities, C.V.) ([5]; concentration 10 ppm) | BPM (Fungicidal Activities, C.V.) ([5]; concentration 50 ppm) | RSB (Fungicidal Activities, C.V.) ([6]; concentration 50 ppm) | further results |
| --- | --- | --- | --- | --- | --- | --- | --- | --- | --- | --- | --- | --- | --- |
| CON=C(C(=O)OC)c1ccccc1CON=C(C)c1cccc(OC(F)=Cc2cccc(C)c2)c1 [Compound 65] | 100% | 100% | 100% | 71% | 0% | 99% | 100% | 100% | 99% | 100% | 100% | 100% | RSB (Fungicidal Activities, C.V.) ([6]; concentration 2 ppm): 30%; RSB (Fungicidal Activities, C.V.) ([6]; concentration 10 ppm): 60% |
| CNC(=O)C(=COC)c1ccccc1CON=C(C)c1cccc(OC(F)=Cc2ccc(C)cc2)c1 [Compound 57] | 95% |  | 99% | 8% | 0% | 27% |  | 98% | 0% |  | 98% | 47% |  |
| COC=C(C(=O)OC)c1ccccc1CON=C(c1cccc(OC(F)=Cc2cccc(F)c2)c1)C(F)(F)F [Compound 90] |  |  | 76% | 9% | 27% |  |  | 86% |  | 97% | 99% | 35% |  |
| CCc1ccc(C=C(F)Oc2cccc(C(C)=NOCc3ccccc3C(=COC)C(=O)OC)c2)cc1 [Compound 45] | 41% | 93% | 97% | 17% | 85% | 95% | 100% | 100% | 99% | 100% | 100% | 65% |  |
| COC=C(C(=O)OC)c1ccccc1CON=C(C)c1cccc(OC(F)=C(c2ccc(C)cc2)C(F)(F)F)c1 [Compound 152] | 86% | 97% | 100% | 44% | 0% | 86% | 98% | 100% | 95% | 100% | 100% | 90% | RSB (Fungicidal Activities, C.V.) ([6]; concentration 2 ppm): 45%; RSB (Fungicidal Activities, C.V.) ([6]; concentration 10 ppm): 60% |
| CNC(=O)C(=NOC)c1ccccc1CON=Cc1cccc(OC(F)=Cc2ccc3c(c2)OCO3)c1 [Compound 39] | 93% |  | 100% | 0% | 83% | 0% |  | 100% | 0% |  | 100% | 58% |  |
| CNC(=O)C(=COC)c1ccccc1CON=C(C)c1cccc(OC(F)=Cc2ccc(OC)cc2)c1 [Compound 60] |  |  | 100% | 8% | 0% |  |  | 66% |  |  | 100% | 29% |  |
| CON=C(C(=O)OC)c1ccccc1CON=Cc1cccc(OC(F)=C(c2ccccc2)C(F)(F)F)c1 [Compound 131] | 43% |  | 80% | 42% | 4% | 98% |  | 100% | 76% |  | 100% | 55% |  |
| CNC(=O)C(=NOC)c1ccccc1CON=C(C)c1cccc(OC(F)=C(c2cc(C)cc(C)c2)C(F)(F)F)c1 [Compound 194] |  |  |  |  |  |  |  |  |  |  |  |  | Fungicidal Activities RCV (C.V.) ([1]; 2 ppm): 95%; Fungicidal Activities RCV (C.V.) ([1]; 50 ppm): 100%; Fungicidal Activities CGM (C.V.) [2]: 16%; Fungicidal Activities TLB (C.V.) ([3]; 50 ppm): 0%; Fungicidal Activities WLR (C.V.) ([4]; 2 ppm): 20%; Fungicidal Activities WLR (C.V.) ([4]; 50 ppm): 98%; Fungicidal Activities BPM (C.V.) ([5]; 2 ppm): 0%; Fungicidal Activities BPM (C.V.) ([5]; 50 ppm): 98%; Fungicidal Activities RSB (C.V.) ([6]; 50 ppm): 64% |
| COC=C(C(=O)OC)c1ccccc1CON=C(C)c1cccc(OC(F)=C(c2cccc(OC)c2)C(F)(F)F)c1 [Compound 157] | 33% | 76% | 93% | 68% | 6% | 98% | 100% | 100% | 97% | 99% | 100% | 60% |  |
| CNC(=O)C(=NOC)c1ccccc1CON=C(C)c1cccc(OC(F)=C(c2ccccc2)C(F)(F)F)c1 [Compound 191] |  |  |  |  |  |  |  |  |  |  |  |  | Fungicidal Activities RCV (C.V.) ([1]; 2 ppm): 100%; Fungicidal Activities RCV (C.V.) ([1]; 50 ppm): 100%; Fungicidal Activities CGM (C.V.) [2]: 68%; Fungicidal Activities TLB (C.V.) ([3]; 2 ppm): 0%; Fungicidal Activities TLB (C.V.) ([3]; 50 ppm): 60%; Fungicidal Activities WLR (C.V.) ([4]; 2 ppm): 99%; Fungicidal Activities WLR (C.V.) ([4]; 50 ppm): 100%; Fungicidal Activities BPM (C.V.) ([5]; 2 ppm): 100%; Fungicidal Activities BPM (C.V.) ([5]; 50 ppm): 100%; Fungicidal Activities RSB (C.V.) ([6]; 2 ppm): 35%; Fungicidal Activities RSB (C.V.) ([6]; 50 ppm): 75% |
| CCOc1ccc(C(=C(F)Oc2cccc(C=NOCc3ccccc3C(=NOC)C(=O)NC)c2)C(F)(F)F)cc1 [Compound 144] | 88% |  | 96% | 0% | 0% |  |  | 86% | 0% |  | 95% | 47% |  |
| COC=C(C(=O)OC)c1ccccc1CON=Cc1cccc(OC(F)=Cc2cccc(C)c2)c1 [Compound 2] | 33% | 86% | 93% | 17% | 85% | 97% | 100% | 100% | 98% | 99% | 100% | 60% |  |
| CON=C(C(=O)OC)c1ccccc1CON=C(C)c1cccc(OC(F)=C(c2ccc(OC)cc2)C(F)(F)F)c1 [Compound 181] |  |  |  |  |  |  |  |  |  |  |  |  | Fungicidal Activities RCV (C.V.) ([1]; 2 ppm): 98%; Fungicidal Activities RCV (C.V.) ([1]; 50 ppm): 95%; Fungicidal Activities CGM (C.V.) [2]: 77%; Fungicidal Activities TLB (C.V.) ([3]; 2 ppm): 68%; Fungicidal Activities TLB (C.V.) ([3]; 50 ppm): 30%; Fungicidal Activities WLR (C.V.) ([4]; 2 ppm): 83%; Fungicidal Activities WLR (C.V.) ([4]; 50 ppm): 99%; Fungicidal Activities BPM (C.V.) ([5]; 2 ppm): 83%; Fungicidal Activities BPM (C.V.) ([5]; 50 ppm): 100%; Fungicidal Activities RSB (C.V.) ([6]; 2 ppm): 35%; Fungicidal Activities RSB (C.V.) ([6]; 50 ppm): 45% |
| CNC(=O)C(=NOC)c1ccccc1CON=Cc1cccc(OC(F)=Cc2ccc(F)cc2)c1 [Compound 37] | 98% |  | 100% | 0% | 0% | 37% |  | 98% | 42% |  | 100% | 29% |  |
| CNC(=O)C(=NOC)c1ccccc1CON=C(C)c1cccc(OC(F)=Cc2cccc(C)c2)c1 [Compound 78] | 100% |  | 100% | 82% | 94% | 100% |  | 100% | 100% |  | 100% | 90% | TLB (Fungicidal Activities, C.V.) ([3]; concentration 2 ppm): 50%; RSB (Fungicidal Activities, C.V.) ([6]; concentration 2 ppm): 45% |
| CNC(=O)/C(=N/OC)c1ccccc1CON=C(C)c1cccc(OC(F)=Cc2ccccc2)c1 [Compound 77] | 100% | 100% | 100% | 85% | 80% | 100% | 100% | 100% | 100% | 100% | 100% | 100% | CGM (Fungicidal Activities, C.V.) ([2]; concentration 2 ppm): 21%; CGM (Fungicidal Activities, C.V.) ([2]; concentration 10 ppm): 36%; TLB (Fungicidal Activities, C.V.) ([3]; concentration 2 ppm): 50%; TLB (Fungicidal Activities, C.V.) ([3]; concentration 10 ppm): 88%; RSB (Fungicidal Activities, C.V.) ([6]; concentration 2 ppm): 40%; RSB (Fungicidal Activities, C.V.) ([6]; concentration 10 ppm): 57% |
